In the assay the target is KRAS-G12V (Homo sapiens, UniProt P01116, G12V). The assay can be described thus: DSF. It counts as binding.

Take `C=C(C)[C@@H]1CC[C@]2(C)CC[C@]3(C)[C@H](CC[C@@H]4[C@@]5(C)CC[C@H](O)C(C)(C)[C@@H]5CC[C@]43C)[C@@H]12` [Lupeol, Lup-20(29)-en-3b-ol]: the “DSF (SYPRO Orange) with GDP-loaded protein; no Kd” value is “(loaded with GDP) suggesting binding of Lupeol to both wt-KRAS and KRAS-^G12V protein”.

Values taken from publication PMC7334075 (Molecular carcinogenesis, 2020).
